Experimental data taken from paper PMC5986654, “Combined HAT/EZH2 modulation leads to cancer-selective cell death” (Oncotarget, 2018).

Assays:
[1] = target: p300 (Homo sapiens, UniProt Q09472); experiment: HAT in vitro assay, 10-dose IC50, p300; type: biochemical; conditions: substrate Histone H3, 3 μM Acetyl-CoA; read-out: Compound IC50 p300
[2] = test system: NB4 cells; experiment: NB4 leukemia xenograft, human CD45+ cells in bone marrow; type: in vivo, mice; conditions: 1 mg/kg i.p., day 16
Description: (§1) Xenograft studies using NB4 and U937-AML cells were performed in NOG SCID mice under specific pathogen–free conditions. Cells (0.2 × 10^6 in 100 µL) were injected intravenously (retro orbital vein). Injected mice were randomly assigned to receive intra-peritoneal MC2884 (1 mg/kg) or vehicle for two weeks (8 doses) (10 mice per group). All animal procedures were performed in accordance with protocols approved by the local Committee for Animal Experimentation and with the permission of the Italian Health Ministry (n° 626/2015). At 16 days after injection, mice were sacrificed and the femurs and spleens were collected. Bone marrow (BM) and spleen cells were analyzed by FACS. To avoid non-specific stain, cells were mixed with mouse IgG and incubated with indicated antibodies for 30’. The mixture was depleted of erythrocytes and fixed (BD Pharmingen). […] Tumor growth was monitored by weekly bioluminescence imaging (BLI) acquisitions using an IVIS 3D Imaging System (Caliper Alameda, USA). To quantify bioluminescence, the integrated fluxes of photons (photons per s) within each area of interest were determined using the Living Images Software Package 3.2 (Caliper, Alameda, USA). […] Efficacy of drug treatment was assessed as inhibition of BLI emission comparing those MC2884 treated mice group and vehicle groups.

[3] = Body weight of leukemia-xenografted mice; type: in vivo; conditions: 1 mg/kg i.p. three times weekly, 16 days post-xenograft; control mice 94%
Description: as §1

[4] = target: T1, CYP2D6 (Homo sapiens, UniProt P10635); experiment: Cytochrome P450 inhibition, CYP2D6; type: in vitro ADME; conditions: human liver microsomes, probe dextromethorphan
T1 construct: liver microsomes (0.5 mg/mL) and NADPH (1 mM) in; from tissue; host or cells: human liver microsomes
T1 sequence (P10635 whole entry): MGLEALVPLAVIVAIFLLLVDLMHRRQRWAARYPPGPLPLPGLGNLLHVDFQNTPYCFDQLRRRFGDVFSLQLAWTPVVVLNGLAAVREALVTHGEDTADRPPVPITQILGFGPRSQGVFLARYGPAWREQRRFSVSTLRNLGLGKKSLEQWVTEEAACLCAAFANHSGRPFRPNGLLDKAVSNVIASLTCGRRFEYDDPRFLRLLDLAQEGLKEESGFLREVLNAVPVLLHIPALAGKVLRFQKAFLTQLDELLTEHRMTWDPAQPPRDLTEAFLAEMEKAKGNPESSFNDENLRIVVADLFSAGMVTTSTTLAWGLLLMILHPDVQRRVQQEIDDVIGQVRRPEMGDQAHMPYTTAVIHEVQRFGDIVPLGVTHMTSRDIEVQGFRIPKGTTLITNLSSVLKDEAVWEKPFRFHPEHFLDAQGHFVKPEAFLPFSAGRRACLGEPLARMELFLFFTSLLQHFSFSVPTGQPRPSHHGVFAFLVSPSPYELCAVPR
Description: This provided a dose of 2 mg free base material/kg when Cytochrome p450 inhibition (5 isoform iC50 administered iv in a 5 mL/kg dosing volume. determination) mouse terminal ip pK study ADME-Tox Cytochrome P450 inhibition of Compound MC2884 was given ip at a dose of 2 mg/kg MC2884 using human liver microsomes as an estimation to a group of 24 normally fed male CD1 mice in a 10 mL/ of in vitro metabolism. kg injection volume. Terminal blood samples (> 230 μL) MC2884 (0.1 μM–25 μM) was incubated with were taken under CO2 from groups of 3 mice at each of 8 human liver microsomes and NADPH in the presence time-points post dose (0.083, 0.25, 0.5, 1, 2, 4, 8 and 24 h) of a cytochrome P450 isoform-specific probe substrate. and placed into heparinized tubes. […]
All samples were stored at −20° C measuring the formation of a fluorescent metabolite. […]
Cyp2C19 inhibition (0.1 mg/mL) and NADPH (1 mM) in the presence of the probe substrate midazolam (2.5 μM) for 5 min at Six test compound samples at concentrations 37° C. […] For the CYP1A incubations, the reactions microsomes (0.5 mg/mL) and NADPH (1 mM) in the were terminated by methanol, and the formation of the presence of the probe substrate mephenytoin (25 μM) metabolite, resorufin, was monitored by fluorescence for 60 min at 37° C. […]

[5] = test system: neuroblastoma SHSY5Y cells; experiment: Cell death induction in SHSY5Y cells; type: cell-based; conditions: 3 μM, 48 h
Description: When tested in neuroblastoma SHSY5Y cells at tetrahydro-4H -pyran-4-one MC2912 failed in inducing
3 μM for 48 h, MC2884 and its analogues furnished cell death in SHSY5Y cells, whereas its thio-analogue
(Supplementary SAR Table 1). In general, the SHSY5Y similarly to what observed in NB4 cells.
than NB4 cells. Anyway, also in this cell line the death in both cell lines such as MC2910, 2912, 2909,
(MC2909), and bis 3,5-dibromophenyl (MC2910) were acetylation and EZH2 deregulation (SAR Figure 2). In […]
3-phenyl-1-propan-1-one chain at N1 (MC3187), which 3).

Chain of p300 (Q09472 whole entry): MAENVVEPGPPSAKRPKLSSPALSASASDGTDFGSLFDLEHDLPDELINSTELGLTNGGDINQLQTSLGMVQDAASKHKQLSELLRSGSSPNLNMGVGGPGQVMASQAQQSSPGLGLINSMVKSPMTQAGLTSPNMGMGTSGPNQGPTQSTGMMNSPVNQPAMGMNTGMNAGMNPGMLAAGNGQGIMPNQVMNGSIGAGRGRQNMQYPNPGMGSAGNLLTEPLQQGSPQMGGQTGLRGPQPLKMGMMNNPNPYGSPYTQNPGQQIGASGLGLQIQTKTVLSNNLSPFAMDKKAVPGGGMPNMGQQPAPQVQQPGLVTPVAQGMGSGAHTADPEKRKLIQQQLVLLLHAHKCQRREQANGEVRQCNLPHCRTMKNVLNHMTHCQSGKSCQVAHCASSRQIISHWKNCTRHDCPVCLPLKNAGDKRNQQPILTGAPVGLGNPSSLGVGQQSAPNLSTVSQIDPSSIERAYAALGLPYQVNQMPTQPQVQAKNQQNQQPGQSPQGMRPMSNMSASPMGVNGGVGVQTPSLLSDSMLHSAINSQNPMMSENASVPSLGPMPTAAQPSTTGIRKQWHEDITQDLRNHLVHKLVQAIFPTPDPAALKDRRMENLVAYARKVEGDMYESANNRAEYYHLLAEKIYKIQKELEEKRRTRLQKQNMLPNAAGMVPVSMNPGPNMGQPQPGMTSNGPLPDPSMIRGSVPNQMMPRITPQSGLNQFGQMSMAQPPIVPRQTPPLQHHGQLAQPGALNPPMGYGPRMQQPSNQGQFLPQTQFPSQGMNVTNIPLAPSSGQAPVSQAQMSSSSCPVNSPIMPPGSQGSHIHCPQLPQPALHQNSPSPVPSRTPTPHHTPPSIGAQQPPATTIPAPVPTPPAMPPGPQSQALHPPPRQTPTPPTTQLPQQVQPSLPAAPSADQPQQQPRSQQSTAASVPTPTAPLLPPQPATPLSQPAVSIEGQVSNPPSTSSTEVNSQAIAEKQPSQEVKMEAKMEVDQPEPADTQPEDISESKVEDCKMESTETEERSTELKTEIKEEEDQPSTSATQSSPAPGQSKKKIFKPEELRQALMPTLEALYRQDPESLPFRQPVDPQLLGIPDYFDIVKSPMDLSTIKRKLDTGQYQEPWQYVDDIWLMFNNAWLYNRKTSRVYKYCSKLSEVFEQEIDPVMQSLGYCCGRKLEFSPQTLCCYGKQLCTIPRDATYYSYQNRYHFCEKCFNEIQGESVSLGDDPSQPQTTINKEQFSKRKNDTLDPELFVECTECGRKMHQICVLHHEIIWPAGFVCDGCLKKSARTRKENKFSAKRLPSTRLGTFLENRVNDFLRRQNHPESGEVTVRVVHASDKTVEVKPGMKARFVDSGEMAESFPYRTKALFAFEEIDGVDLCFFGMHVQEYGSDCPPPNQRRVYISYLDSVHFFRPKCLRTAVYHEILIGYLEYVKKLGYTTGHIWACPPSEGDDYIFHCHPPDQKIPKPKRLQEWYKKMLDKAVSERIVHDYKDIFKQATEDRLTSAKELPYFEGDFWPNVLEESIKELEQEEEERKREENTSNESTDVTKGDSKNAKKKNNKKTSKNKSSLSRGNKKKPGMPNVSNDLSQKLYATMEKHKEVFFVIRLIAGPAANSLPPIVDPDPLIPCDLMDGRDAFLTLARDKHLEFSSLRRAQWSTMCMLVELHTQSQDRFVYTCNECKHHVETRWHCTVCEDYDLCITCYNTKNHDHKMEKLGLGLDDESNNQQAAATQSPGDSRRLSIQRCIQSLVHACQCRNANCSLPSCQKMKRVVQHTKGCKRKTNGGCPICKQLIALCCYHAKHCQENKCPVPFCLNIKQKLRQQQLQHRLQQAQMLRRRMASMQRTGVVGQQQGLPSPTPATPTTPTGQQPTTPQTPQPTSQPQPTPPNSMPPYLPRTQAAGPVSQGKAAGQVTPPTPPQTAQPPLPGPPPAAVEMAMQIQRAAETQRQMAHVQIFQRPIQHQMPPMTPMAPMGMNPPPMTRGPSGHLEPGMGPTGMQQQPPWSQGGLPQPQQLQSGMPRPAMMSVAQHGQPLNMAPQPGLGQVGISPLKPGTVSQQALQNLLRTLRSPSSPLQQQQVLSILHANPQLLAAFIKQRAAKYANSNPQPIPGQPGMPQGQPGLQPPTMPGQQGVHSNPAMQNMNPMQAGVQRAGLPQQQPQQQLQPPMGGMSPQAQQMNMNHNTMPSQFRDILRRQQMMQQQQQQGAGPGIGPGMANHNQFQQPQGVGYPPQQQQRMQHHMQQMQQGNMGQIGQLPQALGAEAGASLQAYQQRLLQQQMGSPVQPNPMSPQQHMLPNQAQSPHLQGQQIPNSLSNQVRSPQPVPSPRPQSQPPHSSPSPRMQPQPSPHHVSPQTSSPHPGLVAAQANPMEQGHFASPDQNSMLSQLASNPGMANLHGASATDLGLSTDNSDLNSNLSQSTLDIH

SMILES: O=C1/C(=C/c2cccc(Br)c2)CN(Cc2ccccc2)C/C1=C\c1cccc(Br)c1 [MC2884]
- IC50 [1]: 0.456 µM
- human CD45+ cells in the bone marrow reduced to [2]: 17%
- normalized weight, % of initial weight [3]: 90%
- IC50 [4]: > 25 µM
- % Cell death SHSY5Y cells [5]: 19.1%
